Experimental data: ChEMBL document CHEMBL1201862, “PubChem BioAssay data set” (2004)
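Protocol summary: plate cells (96-well), add compound at 5 concentrations, incubate 48 h, interpolate endpoints linearly. The concentration for 50% growth inhibition is given as GI50.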 Active and inactive are the calls of the source. No stated cut-off is given here; in the data, active = GI50 up to about 1.1 µM and inactive = higher.

Legend:
Experiment in all cases: NCI anticancer screen, dose series, 48 h
OVCAR-8 = system: OVCAR-8
SF-268 = system: SF-268
SN12C = system: SN12C
SF-539 = system: SF-539
NCI-H226 = system: NCI-H226
BT-549 = system: BT-549
SR = system: SR
SNB-75 = system: SNB-75
DU-145 = system: DU-145
EKVX = system: EKVX
RXF 393 = system: RXF 393
UO-31 = system: UO-31
OVCAR-3 = system: OVCAR-3
COLO 205 = system: COLO 205
LOX IMVI = system: LOX IMVI
SK-MEL-5 = system: SK-MEL-5
TK-10 = system: TK-10
NCI/ADR-RES = system: NCI/ADR-RES
HOP-62 = system: HOP-62
Hs-578T = system: Hs-578T

Measured: GI50

O=[N+]([O-])/C=C/c1cc2ccccc2[nH]1
inactive: OVCAR-8 21.6 µM | SF-268 16.9 µM | SN12C 17.7 µM | SF-539 9.84 µM | NCI-H226 19.1 µM | BT-549 15.6 µM | SR 5.06 µM | SNB-75 15.2 µM | DU-145 15.4 µM | EKVX 29.2 µM | RXF 393 13.3 µM | UO-31 14.8 µM | OVCAR-3 14.8 µM | COLO 205 17.2 µM | LOX IMVI 14.2 µM | SK-MEL-5 14.7 µM | TK-10 17.5 µM | NCI/ADR-RES 32.1 µM | HOP-62 16.5 µM | Hs-578T 22.5 µM

COc1c2ccoc2c(OC)c2oc(=O)ccc12 [ISOPIMPINELLIN]
inactive: OVCAR-8 > 100 µM | SF-268 > 100 µM | SN12C > 100 µM | SF-539 > 100 µM | NCI-H226 99.1 µM | BT-549 > 100 µM | SR > 100 µM | SNB-75 13.1 µM | DU-145 > 100 µM | EKVX 70.1 µM | RXF 393 45.8 µM | UO-31 95.7 µM | OVCAR-3 > 100 µM | COLO 205 > 100 µM | LOX IMVI > 100 µM | SK-MEL-5 94.4 µM | TK-10 > 100 µM | NCI/ADR-RES > 100 µM | HOP-62 > 100 µM | Hs-578T 62.1 µM

O=C(C[C@@H]1CCCN2CCCC[C@H]12)N1c2ccccc2Sc2ccc(Cl)cc21
inactive: OVCAR-8 19.3 µM | SF-268 19.2 µM | SN12C 16.7 µM | SF-539 16.6 µM | NCI-H226 27.6 µM | BT-549 14.7 µM | SR 19.3 µM | SNB-75 13.8 µM | DU-145 14 µM | EKVX 19.1 µM | RXF 393 13.6 µM | UO-31 12.9 µM | OVCAR-3 16.2 µM | COLO 205 11.9 µM | LOX IMVI 13.7 µM | SK-MEL-5 11.7 µM | TK-10 20 µM | NCI/ADR-RES 14.8 µM | HOP-62 13 µM | Hs-578T 17.1 µM

CCCC(=O)[O-].[Na+] [SODIUM BUTYRATE]
inactive: OVCAR-8 1990 µM | SF-268 8280 µM | SN12C 5310 µM | SF-539 3000 µM | NCI-H226 6250 µM | BT-549 8040 µM | SR 789 µM | SNB-75 9680 µM | DU-145 2370 µM | EKVX 18700 µM | RXF 393 8390 µM | UO-31 2520 µM | OVCAR-3 9910 µM | COLO 205 533 µM | LOX IMVI 3520 µM | SK-MEL-5 635 µM | TK-10 719 µM | NCI/ADR-RES 843 µM | HOP-62 7210 µM | Hs-578T 251 µM

CCOC(=O)C(NCc1ccccc1)(NC(=O)c1ccccc1)C(F)(F)F (stereo not given)
inactive: OVCAR-8 98.9 µM | SF-268 > 100 µM | SN12C > 100 µM | SF-539 > 100 µM | NCI-H226 > 100 µM | BT-549 > 100 µM | SR 32.1 µM | SNB-75 68.1 µM | DU-145 > 100 µM | EKVX 82.4 µM | RXF 393 64.7 µM | UO-31 46.6 µM | OVCAR-3 89.7 µM | COLO 205 > 100 µM | LOX IMVI 95.1 µM | SK-MEL-5 84.9 µM | TK-10 > 100 µM | NCI/ADR-RES 43.3 µM | HOP-62 > 100 µM | Hs-578T > 100 µM

Cc1ccc(S(=O)(=O)Oc2ccc(OS(=O)(=O)c3ccc(C)cc3)c3c2C(=O)c2ccccc2C3=O)cc1
inactive: OVCAR-8 > 100 µM | SF-268 > 100 µM | SN12C > 100 µM | SF-539 33 µM | NCI-H226 > 100 µM | BT-549 > 100 µM | SR > 100 µM | SNB-75 16.8 µM | DU-145 > 100 µM | EKVX > 100 µM | RXF 393 23.6 µM | UO-31 33.8 µM | OVCAR-3 > 100 µM | COLO 205 > 100 µM | LOX IMVI > 100 µM | SK-MEL-5 > 100 µM | TK-10 > 100 µM | NCI/ADR-RES > 100 µM | HOP-62 37.8 µM | Hs-578T 38.7 µM

CCOC(=O)c1c(C)n(-c2ccc(Cl)cc2)c2c1cc(O)c1[nH]c3c(c12)CCCC3
inactive: OVCAR-8 55.6 µM | SF-268 50.5 µM | SN12C 65.2 µM | SF-539 42.5 µM | NCI-H226 > 100 µM | BT-549 52.7 µM | SR 3.87 µM | SNB-75 44 µM | DU-145 > 100 µM | EKVX 75.7 µM | RXF 393 19.5 µM | UO-31 > 100 µM | OVCAR-3 54.2 µM | COLO 205 48.8 µM | LOX IMVI 29.4 µM | SK-MEL-5 21.6 µM | TK-10 > 100 µM | NCI/ADR-RES > 100 µM | HOP-62 > 100 µM | Hs-578T 22.5 µM

C[C@]12c3c4cc(NC(=O)C(=O)NCc5ccc(-c6ccccn6)nc5)cc3Oc3cc(NC(=O)C(=O)NCc5ccc(-c6ccccn6)nc5)cc(c31)OC1C=C(NC(=O)C(=O)NCc3ccc(-c5ccccn5)nc3)C=C(O4)C12 (stereo not given in full)
inactive: OVCAR-8 21.9 µM | SF-268 16.8 µM | SN12C 40.9 µM | SF-539 29.3 µM | NCI-H226 29.6 µM | BT-549 > 100 µM | SR 3.83 µM | SNB-75 16.4 µM | DU-145 18.8 µM | EKVX 11.5 µM | RXF 393 > 100 µM | UO-31 22.3 µM | OVCAR-3 35.6 µM | COLO 205 23.1 µM | LOX IMVI 17.6 µM | SK-MEL-5 35.3 µM | TK-10 > 100 µM | NCI/ADR-RES 49.7 µM | HOP-62 > 100 µM | Hs-578T > 100 µM

CC(C)(C)c1cc(C2=NN(c3ccccc3)C(c3ccccc3)C2)cc(C(C)(C)C)c1O (stereo not given)
inactive: OVCAR-8 > 100 µM | SF-268 > 100 µM | SN12C > 100 µM | SF-539 > 100 µM | NCI-H226 > 100 µM | BT-549 > 100 µM | SR 29.3 µM | SNB-75 > 100 µM | DU-145 > 100 µM | EKVX > 100 µM | RXF 393 > 100 µM | UO-31 > 100 µM | OVCAR-3 54.8 µM | COLO 205 35.7 µM | LOX IMVI > 100 µM | SK-MEL-5 > 100 µM | TK-10 > 100 µM | NCI/ADR-RES > 100 µM | HOP-62 > 100 µM | Hs-578T > 100 µM
